Several values for one entry are separate records, joined by “and”; a condition that tells them apart may be missing. Identical values can stand only once.
Conditions: for mass density: 100 kPa, Vibrating tube method; for mass density / viscosity: Liquid; for surface tension liquid-gas / viscosity: Surface laser light scattering (SLLS)

CCCCCCCC(C)C [2-methylnonane]
Conditions | mass density | surface tension liquid-gas [mN/m] | viscosity [mPa·s]
283.15 K | 735.134 kg/m3 | – | –
288.15 K | 731.326 kg/m3 | – | –
293.15 K | 727.469 kg/m3 | – | –
298.15 K | 723.54 kg/m3 and 723.632 kg/m3 | 21.45 | 0.8268
303.15 K | 719.96 kg/m3 | – | –
308.15 K | 716.109 kg/m3 | – | –
313.15 K | 712.275 kg/m3 | – | –
318.15 K | 708.49 kg/m3 | – | –
323.15 K | 704.14 kg/m3 and 704.628 kg/m3 | 19.65 | 0.6035
328.15 K | 700.722 kg/m3 | – | –
333.15 K | 696.794 kg/m3 | – | –
338.15 K | 692.852 kg/m3 | – | –
343.15 K | 688.883 kg/m3 | – | –
348.15 K | 684.896 kg/m3 and 684.45 kg/m3 | 17.76 | 0.4629
353.15 K | 680.89 kg/m3 | – | –
358.15 K | 676.827 kg/m3 | – | –
363.15 K | 672.811 kg/m3 | – | –
373.15 K | 664.34 kg/m3 | 15.75 | 0.3623
398.15 K | 643.46 kg/m3 | 13.64 | 0.2897
423.15 K | 621.59 kg/m3 | 11.72 | 0.2365
448.15 K | – | 9.9 | 0.1989

CCCCCC(C)CCC (stereo not drawn) [4-methylnonane]
Conditions | mass density | surface tension liquid-gas [mN/m] | viscosity [mPa·s]
283.15 K | 739.362 kg/m3 | – | –
288.15 K | 735.555 kg/m3 | – | –
293.15 K | 731.743 kg/m3 | – | –
298.15 K | 728.35 kg/m3 and 727.929 kg/m3 | 21.67 | 0.7638
303.15 K | 724.098 kg/m3 | – | –
308.15 K | 720.253 kg/m3 | – | –
313.15 K | 716.396 kg/m3 | – | –
318.15 K | 712.527 kg/m3 | – | –
323.15 K | 708.82 kg/m3 and 708.634 kg/m3 | 20.06 | 0.5533
328.15 K | 704.729 kg/m3 | – | –
333.15 K | 700.808 kg/m3 | – | –
338.15 K | 696.873 kg/m3 | – | –
343.15 K | 692.918 kg/m3 | – | –
348.15 K | 688.94 kg/m3 and 689 kg/m3 | 17.93 | 0.4161
353.15 K | 684.943 kg/m3 | – | –
358.15 K | 680.922 kg/m3 | – | –
363.15 K | 676.877 kg/m3 | – | –
373.15 K | 668.81 kg/m3 | 15.92 | 0.3279
398.15 K | 647.86 kg/m3 | 13.77 | 0.2644
423.15 K | 626 kg/m3 | 11.89 | 0.2168
448.15 K | – | 9.95 | 0.1801
